In assay [1] the target is T1, Ephrin type-B receptor 2 (Homo sapiens) (UniProt P29323).
T1 sequence (whole entry): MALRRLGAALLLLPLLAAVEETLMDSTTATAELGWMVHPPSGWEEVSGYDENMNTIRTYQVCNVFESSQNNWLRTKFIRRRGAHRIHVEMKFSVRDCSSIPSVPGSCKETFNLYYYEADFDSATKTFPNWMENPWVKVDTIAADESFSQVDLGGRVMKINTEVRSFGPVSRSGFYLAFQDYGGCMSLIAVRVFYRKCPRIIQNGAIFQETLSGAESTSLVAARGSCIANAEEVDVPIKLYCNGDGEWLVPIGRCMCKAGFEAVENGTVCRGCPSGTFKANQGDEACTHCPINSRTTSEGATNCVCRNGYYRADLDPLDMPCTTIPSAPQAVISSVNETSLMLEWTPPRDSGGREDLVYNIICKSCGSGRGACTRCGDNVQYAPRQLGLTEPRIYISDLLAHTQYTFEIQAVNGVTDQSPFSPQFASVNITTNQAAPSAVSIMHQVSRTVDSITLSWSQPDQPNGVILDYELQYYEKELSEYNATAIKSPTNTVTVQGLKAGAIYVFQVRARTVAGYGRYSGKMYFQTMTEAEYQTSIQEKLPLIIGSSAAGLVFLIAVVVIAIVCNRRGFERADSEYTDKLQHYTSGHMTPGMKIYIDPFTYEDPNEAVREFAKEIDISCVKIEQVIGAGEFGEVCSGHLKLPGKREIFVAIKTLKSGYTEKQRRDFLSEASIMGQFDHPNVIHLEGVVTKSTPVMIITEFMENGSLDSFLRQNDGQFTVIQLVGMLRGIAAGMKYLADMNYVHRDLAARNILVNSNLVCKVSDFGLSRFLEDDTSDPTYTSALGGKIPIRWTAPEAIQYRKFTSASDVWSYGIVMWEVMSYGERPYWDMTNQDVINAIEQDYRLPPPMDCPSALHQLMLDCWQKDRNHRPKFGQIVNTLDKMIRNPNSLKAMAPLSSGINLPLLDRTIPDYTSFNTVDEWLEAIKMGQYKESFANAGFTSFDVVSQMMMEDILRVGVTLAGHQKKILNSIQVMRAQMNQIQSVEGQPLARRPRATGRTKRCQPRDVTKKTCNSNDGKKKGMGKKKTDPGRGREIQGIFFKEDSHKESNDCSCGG
In words: Inhibition of EPHB2 (unknown origin) assessed as residual activity at 10 uM incubated for 5 mins in presence of [gamma-33ATP] by scintillation counting based radiometry assay relative to control.

Assay [2] deals with Serine/threonine-protein kinase Nek6 (Homo sapiens, UniProt Q9HC98). Description: Inhibition of NEK6 (unknown origin) assessed as residual activity at 10 uM incubated for 5 mins in presence of [gamma-33ATP] by scintillation counting based radiometry assay relative to control.
Serine/threonine-protein kinase Nek6, sequence (Q9HC98 whole entry): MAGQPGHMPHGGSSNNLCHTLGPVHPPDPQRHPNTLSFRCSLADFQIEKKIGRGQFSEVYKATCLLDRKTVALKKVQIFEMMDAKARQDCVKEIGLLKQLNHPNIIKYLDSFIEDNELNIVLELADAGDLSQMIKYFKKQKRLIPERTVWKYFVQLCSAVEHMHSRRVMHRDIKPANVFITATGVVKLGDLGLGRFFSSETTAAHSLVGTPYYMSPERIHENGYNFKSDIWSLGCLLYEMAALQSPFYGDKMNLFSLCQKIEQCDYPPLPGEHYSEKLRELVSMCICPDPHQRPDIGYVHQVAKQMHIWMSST
Assay [3] concerns the target Tyrosine-protein kinase Lck (Homo sapiens, UniProt P06239). Description: Inhibition of LCK (unknown origin) assessed as residual activity at 10 uM incubated for 5 mins in presence of [gamma-33ATP] by scintillation counting based radiometry assay relative to control.
For assay [4], the target named is Platelet-derived growth factor receptor alpha (Homo sapiens, UniProt P16234). Description: Inhibition of PDGFRalpha (unknown origin) assessed as residual activity at 10 uM incubated for 5 mins in presence of [gamma-33ATP] by scintillation counting based radiometry assay relative to control.
Platelet-derived growth factor receptor alpha, sequence (P16234 whole entry, the tested form may be a part): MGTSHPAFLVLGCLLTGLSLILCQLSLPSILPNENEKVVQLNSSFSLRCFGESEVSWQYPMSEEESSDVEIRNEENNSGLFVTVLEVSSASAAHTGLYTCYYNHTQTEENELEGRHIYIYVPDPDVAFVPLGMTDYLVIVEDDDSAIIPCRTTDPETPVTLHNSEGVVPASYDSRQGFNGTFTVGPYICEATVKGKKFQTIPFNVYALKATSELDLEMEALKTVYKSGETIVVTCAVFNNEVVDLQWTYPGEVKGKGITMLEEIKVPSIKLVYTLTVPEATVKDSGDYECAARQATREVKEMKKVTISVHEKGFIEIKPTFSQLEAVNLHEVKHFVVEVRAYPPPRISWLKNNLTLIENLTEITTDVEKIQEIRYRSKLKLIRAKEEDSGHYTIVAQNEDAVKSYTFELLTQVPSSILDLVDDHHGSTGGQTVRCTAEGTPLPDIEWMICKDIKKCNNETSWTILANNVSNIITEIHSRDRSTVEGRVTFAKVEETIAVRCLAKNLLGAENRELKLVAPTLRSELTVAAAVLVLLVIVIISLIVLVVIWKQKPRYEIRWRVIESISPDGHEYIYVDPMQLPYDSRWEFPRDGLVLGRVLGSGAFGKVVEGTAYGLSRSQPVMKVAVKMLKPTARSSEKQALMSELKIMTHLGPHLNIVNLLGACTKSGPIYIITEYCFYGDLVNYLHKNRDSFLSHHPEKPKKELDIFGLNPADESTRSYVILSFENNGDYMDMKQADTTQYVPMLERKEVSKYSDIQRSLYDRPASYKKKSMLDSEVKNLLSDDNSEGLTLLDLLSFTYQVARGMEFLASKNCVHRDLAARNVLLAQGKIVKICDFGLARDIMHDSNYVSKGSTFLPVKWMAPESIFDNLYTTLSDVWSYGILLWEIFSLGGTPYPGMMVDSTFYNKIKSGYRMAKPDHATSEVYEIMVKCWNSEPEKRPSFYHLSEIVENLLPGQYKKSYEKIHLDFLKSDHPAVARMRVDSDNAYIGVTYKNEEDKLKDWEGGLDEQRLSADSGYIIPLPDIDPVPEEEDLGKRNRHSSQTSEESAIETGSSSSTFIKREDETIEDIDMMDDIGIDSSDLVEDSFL
Assay [5] addresses T2, Discoidin domain-containing receptor 2 (Homo sapiens) (UniProt Q16832).
T2 sequence (whole entry): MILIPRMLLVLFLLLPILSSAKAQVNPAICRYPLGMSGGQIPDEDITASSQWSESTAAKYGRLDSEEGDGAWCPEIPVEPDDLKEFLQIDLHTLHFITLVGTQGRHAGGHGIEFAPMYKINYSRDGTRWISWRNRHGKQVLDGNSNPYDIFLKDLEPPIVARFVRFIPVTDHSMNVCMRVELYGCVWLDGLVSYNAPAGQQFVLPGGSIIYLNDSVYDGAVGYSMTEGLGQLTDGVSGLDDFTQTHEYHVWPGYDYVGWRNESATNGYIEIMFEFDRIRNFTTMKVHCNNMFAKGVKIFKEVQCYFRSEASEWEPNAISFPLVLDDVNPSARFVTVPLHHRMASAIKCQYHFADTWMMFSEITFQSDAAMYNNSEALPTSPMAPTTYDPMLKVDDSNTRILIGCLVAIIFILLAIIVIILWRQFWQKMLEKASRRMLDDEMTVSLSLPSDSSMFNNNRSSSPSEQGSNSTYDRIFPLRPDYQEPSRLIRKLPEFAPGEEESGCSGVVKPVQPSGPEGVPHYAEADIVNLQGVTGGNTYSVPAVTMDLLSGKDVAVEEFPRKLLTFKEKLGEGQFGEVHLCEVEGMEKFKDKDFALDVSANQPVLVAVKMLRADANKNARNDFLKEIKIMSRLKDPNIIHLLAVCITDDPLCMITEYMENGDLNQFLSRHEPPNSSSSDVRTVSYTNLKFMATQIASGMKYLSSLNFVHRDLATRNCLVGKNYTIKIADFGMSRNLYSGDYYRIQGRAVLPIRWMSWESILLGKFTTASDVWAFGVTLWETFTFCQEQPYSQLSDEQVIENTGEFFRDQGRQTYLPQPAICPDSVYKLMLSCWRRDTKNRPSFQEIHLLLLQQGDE
In words: Inhibition of DDR2 (unknown origin) assessed as residual activity at 10 uM incubated for 5 mins in presence of [gamma-33ATP] by scintillation counting based radiometry assay relative to control.

The species entered for a further assay is Homo sapiens. In words: Inhibition of VEGFR (unknown origin) assessed as residual activity at 10 uM incubated for 5 mins in presence of [gamma-33ATP] by scintillation counting based radiometry assay relative to control.
For assay [6], the target named is Tyrosine-protein kinase ABL1 (Homo sapiens, UniProt P00519). Description: Inhibition of ABL1 (unknown origin) assessed as residual activity incubated for 5 mins in presence of [gamma-33ATP] by scintillation counting based radiometry assay.
Tyrosine-protein kinase ABL1, sequence (P00519 whole entry): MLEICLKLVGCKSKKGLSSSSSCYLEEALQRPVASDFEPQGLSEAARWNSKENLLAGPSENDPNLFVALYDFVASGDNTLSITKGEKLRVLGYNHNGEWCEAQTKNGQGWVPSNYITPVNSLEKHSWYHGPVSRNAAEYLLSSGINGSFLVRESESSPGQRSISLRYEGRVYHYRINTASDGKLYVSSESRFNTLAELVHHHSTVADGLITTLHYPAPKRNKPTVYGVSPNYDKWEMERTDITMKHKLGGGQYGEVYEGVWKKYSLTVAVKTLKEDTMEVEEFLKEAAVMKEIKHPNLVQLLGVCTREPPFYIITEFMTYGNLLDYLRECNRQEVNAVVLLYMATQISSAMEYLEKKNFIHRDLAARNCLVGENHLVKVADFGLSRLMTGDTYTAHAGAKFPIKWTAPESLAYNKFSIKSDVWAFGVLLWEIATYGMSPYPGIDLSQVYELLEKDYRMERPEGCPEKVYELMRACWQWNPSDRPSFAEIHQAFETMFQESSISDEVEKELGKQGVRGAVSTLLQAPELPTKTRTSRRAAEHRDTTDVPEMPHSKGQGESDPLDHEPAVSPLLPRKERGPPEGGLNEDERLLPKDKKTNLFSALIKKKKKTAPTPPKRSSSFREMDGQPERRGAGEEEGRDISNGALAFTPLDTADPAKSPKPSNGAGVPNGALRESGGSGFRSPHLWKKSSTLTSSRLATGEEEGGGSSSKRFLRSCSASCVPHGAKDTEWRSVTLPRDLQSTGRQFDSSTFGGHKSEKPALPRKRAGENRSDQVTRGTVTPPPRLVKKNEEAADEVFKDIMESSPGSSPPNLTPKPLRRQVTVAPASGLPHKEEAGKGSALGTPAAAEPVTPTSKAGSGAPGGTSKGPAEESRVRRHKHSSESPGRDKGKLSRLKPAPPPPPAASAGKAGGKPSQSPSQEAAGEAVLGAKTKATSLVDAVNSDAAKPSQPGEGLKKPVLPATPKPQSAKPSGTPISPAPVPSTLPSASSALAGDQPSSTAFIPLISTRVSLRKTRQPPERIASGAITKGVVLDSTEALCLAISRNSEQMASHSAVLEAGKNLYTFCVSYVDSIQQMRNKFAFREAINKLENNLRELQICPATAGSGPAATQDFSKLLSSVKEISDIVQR
The nature of assay [7]: Inhibition of VEGFR (unknown origin) assessed as residual activity incubated for 5 mins in presence of [gamma-33ATP] by scintillation counting based radiometry assay. Details: species or system Homo sapiens.

Molecules are shown by their SMILES.

Tyrosine-protein kinase Lck, sequence (P06239 2-509 limits assumed): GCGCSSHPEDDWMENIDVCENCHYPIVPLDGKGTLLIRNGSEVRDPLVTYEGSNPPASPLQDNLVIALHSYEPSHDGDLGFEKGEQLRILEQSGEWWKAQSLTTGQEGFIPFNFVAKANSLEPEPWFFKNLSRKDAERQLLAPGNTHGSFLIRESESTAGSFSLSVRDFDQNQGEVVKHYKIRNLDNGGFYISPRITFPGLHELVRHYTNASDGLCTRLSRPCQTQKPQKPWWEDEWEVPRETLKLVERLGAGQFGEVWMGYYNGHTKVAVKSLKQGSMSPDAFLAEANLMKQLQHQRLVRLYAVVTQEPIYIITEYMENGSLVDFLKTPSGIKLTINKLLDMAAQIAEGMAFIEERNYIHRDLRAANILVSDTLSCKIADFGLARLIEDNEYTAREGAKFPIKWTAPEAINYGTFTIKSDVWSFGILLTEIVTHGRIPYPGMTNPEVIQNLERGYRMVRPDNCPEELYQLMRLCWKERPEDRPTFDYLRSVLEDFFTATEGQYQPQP

Consider `Cc1cn(-c2cc(NC(=O)c3ccc(C)c(Nc4nccc(-c5cccnc5)n4)c3)cc(C(F)(F)F)c2)cn1` [NILOTINIB], for which the Activity in assay [1] amounted to 25%; in assay [2] it was 97%; in assay [3] it was 37%; in assay [4], 56%; in assay [5], 4%; in the assay filed under Homo sapiens it was 75%.
For orientation: IC50 means the concentration that gives 50% inhibition. `Cc1ccc(C(=O)Nc2ccc(CN3Cc4cn[nH]c4C3)c(Cl)c2)cc1C#Cc1cnc2cccnn12`: the Activity came out at 1% in assay [1]; 9% in assay [2]; 17% in assay [3]; 16% in assay [4]; 14% in assay [5]; 13% in the assay listed under Homo sapiens. Also, the IC50 was found to be 1.3 nM in assay [6] and 44.8 nM in assay [7].

The values above are taken from ChEMBL document CHEMBL4602709 (ACS Med Chem Lett, 2020).
